# Where “and” joins values, the source holds several entries; their conditions need not be identical. Equal values may be shown once. Read-outs that look alike come from different tables or passages of the source.
# Experiments:
# [1] = system: cyclin K–eGFP degradation reporter; test: Cyclin K reporter stability analysis (dual-color cyclin K–eGFP reporter); format: cell-based, human; settings: source data sheet correlations; read-out: DC50
# In short: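 Readout was the eGFP-to-mCherry geometric-mean ratio by flow cytometry, normalized to three DMSO controls, after 5 h drug exposure. Cells used were HEK293T–Cas9 expressing the dual-colour cyclin K–eGFP degradation reporter.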
# CDK9–cyclin T = biological target: T1, CDK9–cyclin T (Homo sapiens, UniProt P50750); test: Lanthascreen kinase binding assay, CDK9; settings: for Lanthascreen TR-FRET signal (raw ratio), sheet CDK9: duplicates
# T1 construct: purchased Thermo Fisher
# T1 sequence (P50750 whole entry): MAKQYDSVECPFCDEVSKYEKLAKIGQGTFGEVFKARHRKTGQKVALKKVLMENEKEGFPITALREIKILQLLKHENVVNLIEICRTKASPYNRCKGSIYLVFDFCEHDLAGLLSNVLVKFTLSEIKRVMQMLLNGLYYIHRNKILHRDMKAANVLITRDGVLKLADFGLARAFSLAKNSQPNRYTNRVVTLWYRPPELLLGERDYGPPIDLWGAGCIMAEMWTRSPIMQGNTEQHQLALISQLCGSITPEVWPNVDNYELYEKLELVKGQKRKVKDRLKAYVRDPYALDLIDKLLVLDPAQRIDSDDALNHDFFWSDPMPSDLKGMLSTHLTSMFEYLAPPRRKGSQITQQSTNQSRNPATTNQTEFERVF
# T1 sequence (O60563 whole entry partner): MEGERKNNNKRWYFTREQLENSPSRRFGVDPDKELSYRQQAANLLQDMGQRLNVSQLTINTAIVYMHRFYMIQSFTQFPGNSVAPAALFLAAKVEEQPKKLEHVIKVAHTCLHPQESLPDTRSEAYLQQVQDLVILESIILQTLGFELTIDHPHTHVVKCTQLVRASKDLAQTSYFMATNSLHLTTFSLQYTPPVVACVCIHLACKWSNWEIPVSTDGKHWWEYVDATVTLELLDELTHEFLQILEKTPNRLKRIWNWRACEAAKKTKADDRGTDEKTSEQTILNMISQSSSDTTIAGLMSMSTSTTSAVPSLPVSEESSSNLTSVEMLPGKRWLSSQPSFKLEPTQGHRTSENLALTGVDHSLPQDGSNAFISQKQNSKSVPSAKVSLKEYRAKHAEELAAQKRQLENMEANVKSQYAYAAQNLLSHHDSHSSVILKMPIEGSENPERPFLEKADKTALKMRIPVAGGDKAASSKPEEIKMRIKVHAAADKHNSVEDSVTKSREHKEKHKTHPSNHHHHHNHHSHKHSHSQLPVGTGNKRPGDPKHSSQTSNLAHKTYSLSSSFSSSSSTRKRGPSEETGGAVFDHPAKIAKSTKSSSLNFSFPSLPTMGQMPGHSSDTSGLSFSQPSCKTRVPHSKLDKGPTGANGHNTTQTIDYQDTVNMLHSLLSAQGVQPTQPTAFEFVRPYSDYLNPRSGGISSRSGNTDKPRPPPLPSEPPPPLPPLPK
# Experimental: (§1) Lanthascreen experiments were performed using commercially available reagents (Thermo Fisher) and according to the manufacturer’s instructions.
# CDK2–cyclin A = biological target: T2, CDK2–cyclin A (Homo sapiens, UniProt P24941); test: Lanthascreen kinase binding assay, CDK2; settings: for Lanthascreen signal, sheet CDK2: raw replicates
# T2 construct: purchased Thermo Fisher
# Experimental: as §1
# cyclin K = test: Label-free quantitative mass spectrometry in MDA-MB-231 cells, cyclin K; format: cell-based, human; settings: for CCNK peptide count (DMSO-normalised): normalised to DMSO = 1, replicate values
# Experimental: MDA-MB-231 cells were treated with DMSO or a cyclin K degrader compound at 1 µM for 5 h. Cells were collected by centrifugation and washed with phosphate-buffered saline before snap freezing in liquid nitrogen. Cells were lysed by addition of lysis buffer (8 M urea, 50 mM NaCl, 50 mM 4-(2-hydroxyethyl)-1-piperazineethanesulfonic acid (EPPS) pH 8.5, and protease and phosphatase inhibitors) and homogenization by bead beating (BioSpec) for three repeats of 30 s at 2,400 rpm. Bradford assay was used to determine the final protein concentration in the clarified cell lysate. Then 50 µg of protein for each sample was reduced, alkylated and precipitated using methanol/chloroform as previously described, and the resulting washed precipitated protein was allowed to air dry. Precipitated protein was resuspended in 4 M urea, 50 mM HEPES pH 7.4, followed by dilution to 1 M urea with the addition of 200 mM EPPS, pH 8. Proteins were first digested with LysC (1:50; enzyme:protein) for 12 h at room temperature. The LysC digestion was diluted to 0.5 M urea with 200 mM EPPS pH 8 followed by digestion with trypsin (1:50; enzyme:protein) for 6 h at 37 °C. Sample digests were acidified with formic acid to a pH of 2–3 before desalting using C18 solid phase extraction plates (SOLA, Thermo Fisher Scientific). Desalted peptides were dried in a vacuum-centrifuged and reconstituted in 0.1% formic acid for liquid chromatography–mass spectrometry analysis.
# Data were collected using a TimsTOF Pro2 (Bruker Daltonics) coupled to a nanoElute LC pump (Bruker Daltonics) via a CaptiveSpray nano-electrospray source. Peptides were separated on a reversed-phase C18 column (25 cm × 75 µm inner diameter, […], IonOpticks) containing an integrated captive spray emitter. Peptides were separated using a 50 min gradient of 2–30% buffer B (acetonitrile in 0.1% formic acid) with a flow rate of 250 nl min^−1 and column temperature maintained at 50 °C.
# Data-dependent acquisition (DDA) was performed in Parallel Accumulation-Serial Fragmentation (PASEF) mode to determine effective ion mobility windows for downstream diaPASEF data collection. The ddaPASEF parameters included: 100% duty cycle using accumulation and ramp times of 50 ms each, one Trapped Ion Mobility Spectrometry(TIMS)-MS scan and ten PASEF ramps per acquisition cycle. The TIMS-MS survey scan was acquired between 100 m/z and 1,700 m/z and 1/K0 of 0.7–1.3 V s cm^−2. Precursors with one to five charges were selected, and those that reached an intensity threshold of 20,000 arbitrary units were actively excluded for 0.4 min. The quadrupole isolation width was set to 2 m/z for m/z < 700 and 3 m/z for m/z > 800, with the m/z between 700 m/z and 800 m/z being interpolated linearly. […] To perform diaPASEF, the precursor distribution in the DDA m/z-ion mobility plane was used to design an acquisition scheme for data-independent acquisition (DIA) data collection that included two windows in each 50 ms diaPASEF scan. Data were acquired using 16 of these 25 Da precursor double window scans (creating 32 windows) that covered the diagonal scan line for doubly and triply charged precursors, with singly charged precursors able to be excluded by their position in the m/z-ion mobility plane. These precursor isolation windows were defined between 400 m/z and 1,200 m/z and 1/K0 of 0.7–1.3 V s cm^−2.
# DirectDIA mode includes first extracting the DIA data into a collection of MS2 spectra which are searched using Spectronaut’s Pulsar search engine. The search results are then used to generate a spectral library which is then employed for the targeted analysis of the DIA data. MS/MS spectra were searched against a Swissprot human database (January 2021). Database search criteria largely followed the default settings for directDIA including: tryptic with two missed cleavages, fixed carbomidomethylation of cysteine, and variable oxidation of methionine and acetylation of protein N-termini and precursor Q-value (FDR) cut-off of 0.01. […]
# [2] = Supplementary Table 2, read-out: Lanthascreen IC50 [nM] CDK9
# [3] = Supplementary Table 2, read-out: Lanthascreen IC50 [nM] CDK2
# [4] = individual replicates, sheet EDF7
# [5] = label-free quantitative MS, replicate values
smiles,measurement,setting,value
CC[C@H](CO)Nc1nc(NCc2nc3cc(Cl)c(Cl)cc3[nH]2)c2ncn(C(C)C)c2n1 [DS17],DC50,[1],0.012 µM
same,IC50,CDK9–cyclin T; [2],3060 nM
same,"Lanthascreen TR-FRET signal (raw ratio), sheet CDK9","CDK9–cyclin T; compound 0.038147 nM, third titration set (r25)",0.02187 and 0.01792
same,"Lanthascreen TR-FRET signal (raw ratio), sheet CDK9","CDK9–cyclin T; compound 0.152588 nM, third titration set (r25)",0.02168 and 0.01994
same,"Lanthascreen TR-FRET signal (raw ratio), sheet CDK9","CDK9–cyclin T; compound 0.610352 nM, third titration set (r25)",0.0196 and 0.01929
same,"Lanthascreen TR-FRET signal (raw ratio), sheet CDK9","CDK9–cyclin T; compound 9.76563 nM, third titration set (r25)",0.02026 and 0.01917
same,"Lanthascreen TR-FRET signal (raw ratio), sheet CDK9","CDK9–cyclin T; compound 39.0625 nM, third titration set (r25)",0.02086 and 0.01978
same,"Lanthascreen TR-FRET signal (raw ratio), sheet CDK9","CDK9–cyclin T; compound 156.25 nM, third titration set (r25)",0.01948 and 0.0176
same,"Lanthascreen TR-FRET signal (raw ratio), sheet CDK9","CDK9–cyclin T; compound 625 nM, third titration set (r25)",0.01695 and 0.01459
same,"Lanthascreen TR-FRET signal (raw ratio), sheet CDK9","CDK9–cyclin T; compound 2500 nM, third titration set (r25)",0.01153 and 0.01174
same,"Lanthascreen TR-FRET signal (raw ratio), sheet CDK9","CDK9–cyclin T; compound 10000 nM, third titration set (r25)",0.006855 and 0.006128
same,"Lanthascreen signal, sheet CDK2","CDK2–cyclin A; Compound 0.038147 nM, experiment r36-r46",0.01335 and 0.01346
same,"Lanthascreen signal, sheet CDK2","CDK2–cyclin A; Compound 0.152588 nM, experiment r36-r46",0.01372 and 0.01373
same,"Lanthascreen signal, sheet CDK2","CDK2–cyclin A; Compound 0.610352 nM, experiment r36-r46",0.01335 and 0.01333
same,"Lanthascreen signal, sheet CDK2","CDK2–cyclin A; Compound 9.76563 nM, experiment r36-r46",0.01387 and 0.01379
same,"Lanthascreen signal, sheet CDK2","CDK2–cyclin A; Compound 39.0625 nM, experiment r36-r46",0.01306 and 0.01354
same,"Lanthascreen signal, sheet CDK2","CDK2–cyclin A; Compound 156.25 nM, experiment r36-r46",0.01303 and 0.01259
same,"Lanthascreen signal, sheet CDK2","CDK2–cyclin A; Compound 625 nM, experiment r36-r46",0.01178 and 0.01167
same,"Lanthascreen signal, sheet CDK2","CDK2–cyclin A; Compound 2500 nM, experiment r36-r46",0.01002 and 0.01073
same,"Lanthascreen signal, sheet CDK2","CDK2–cyclin A; Compound 10000 nM, experiment r36-r46",0.0065 and 0.006945
same,IC50,CDK2–cyclin A; [3],10300 nM
same,"cyclin K depletion, result in words","cyclin K; MDA-MB-231 cells, 1 µM, 5 h",more effective at depleting cyclin K than CR8
same,cyclin K abundance (label-free MS),cyclin K; [4],47.1483 and 71.6427
same,cyclin K abundance (label-free MS),cyclin K; [5],47.1483 and 71.6427
same,CCNK peptide count (DMSO-normalised),cyclin K,0.02576 and 0.03985
same,average CCNK peptide count,cyclin K; sheet EDF7,59.3955
Cc1cccc(Nc2nc(CC(=O)Nc3ncc(C)s3)cs2)n1 [HQ461],DC50,[1],0.493 µM
same,IC50,"CDK9–cyclin T; Lanthascreen, read-out: CDK9 inhibition",> 10000 nM
same,IC50,CDK9–cyclin T; [2],> 10000 nM
same,"Lanthascreen TR-FRET signal (raw ratio), sheet CDK9","CDK9–cyclin T; compound 0.038147 nM, second titration set (r13)",0.01409 and 0.01416
same,"Lanthascreen TR-FRET signal (raw ratio), sheet CDK9","CDK9–cyclin T; compound 0.152588 nM, second titration set (r13)",0.01468 and 0.01413
same,"Lanthascreen TR-FRET signal (raw ratio), sheet CDK9","CDK9–cyclin T; compound 0.610352 nM, second titration set (r13)",0.01464 and 0.01471
same,"Lanthascreen TR-FRET signal (raw ratio), sheet CDK9","CDK9–cyclin T; compound 1.02544 nM, first titration set (r1)",0.013 and 0.01376
same,"Lanthascreen TR-FRET signal (raw ratio), sheet CDK9","CDK9–cyclin T; compound 3.15521 nM, first titration set (r1)",0.01501 and 0.01445
same,"Lanthascreen TR-FRET signal (raw ratio), sheet CDK9","CDK9–cyclin T; compound 9.46563 nM, first titration set (r1)",0.01436 and 0.01453
same,"Lanthascreen TR-FRET signal (raw ratio), sheet CDK9","CDK9–cyclin T; compound 9.76563 nM, second titration set (r13)",0.01408 and 0.01448
same,"Lanthascreen TR-FRET signal (raw ratio), sheet CDK9","CDK9–cyclin T; compound 31.5521 nM, first titration set (r1)",0.01309 and 0.01275
same,"Lanthascreen TR-FRET signal (raw ratio), sheet CDK9","CDK9–cyclin T; compound 39.0625 nM, second titration set (r13)",0.01393 and 0.01389
same,"Lanthascreen TR-FRET signal (raw ratio), sheet CDK9","CDK9–cyclin T; compound 99.3891 nM, first titration set (r1)",0.01397 and 0.01502
same,"Lanthascreen TR-FRET signal (raw ratio), sheet CDK9","CDK9–cyclin T; compound 156.25 nM, second titration set (r13)",0.01402 and 0.0137
same,"Lanthascreen TR-FRET signal (raw ratio), sheet CDK9","CDK9–cyclin T; compound 315.521 nM, first titration set (r1)",0.01247 and 0.01162
same,"Lanthascreen TR-FRET signal (raw ratio), sheet CDK9","CDK9–cyclin T; compound 625 nM, second titration set (r13)",0.01303 and 0.01336
same,"Lanthascreen TR-FRET signal (raw ratio), sheet CDK9","CDK9–cyclin T; compound 2500 nM, second titration set (r13)",0.01244 and 0.01203
same,"Lanthascreen TR-FRET signal (raw ratio), sheet CDK9","CDK9–cyclin T; compound 3155.21 nM, first titration set (r1)",0.007103 and 0.007563
same,"Lanthascreen TR-FRET signal (raw ratio), sheet CDK9","CDK9–cyclin T; compound 10000 nM, second titration set (r13)",0.01094 and 0.01086
same,"Lanthascreen TR-FRET signal (raw ratio), sheet CDK9","CDK9–cyclin T; compound 10002 nM, first titration set (r1)",0.01268 and 0.01049
same,"Lanthascreen signal, sheet CDK2","CDK2–cyclin A; Compound 0.038147 nM, experiment r13-r23",0.01269 and 0.01279
same,"Lanthascreen signal, sheet CDK2","CDK2–cyclin A; Compound 0.152588 nM, experiment r13-r23",0.01374 and 0.01273
same,"Lanthascreen signal, sheet CDK2","CDK2–cyclin A; Compound 0.610352 nM, experiment r13-r23",0.01372 and 0.01331
same,"Lanthascreen signal, sheet CDK2","CDK2–cyclin A; Compound 1.02544 nM, experiment r1-r11",0.009631 and 0.01041
same,"Lanthascreen signal, sheet CDK2","CDK2–cyclin A; Compound 3.15521 nM, experiment r1-r11",0.01056 and 0.008974
same,"Lanthascreen signal, sheet CDK2","CDK2–cyclin A; Compound 9.46563 nM, experiment r1-r11",0.009472 and 0.0097
same,"Lanthascreen signal, sheet CDK2","CDK2–cyclin A; Compound 9.76563 nM, experiment r13-r23",0.01395 and 0.01369
same,"Lanthascreen signal, sheet CDK2","CDK2–cyclin A; Compound 31.5521 nM, experiment r1-r11",0.0114 and 0.01012
same,"Lanthascreen signal, sheet CDK2","CDK2–cyclin A; Compound 39.0625 nM, experiment r13-r23",0.01257 and 0.0126
same,"Lanthascreen signal, sheet CDK2","CDK2–cyclin A; Compound 99.3891 nM, experiment r1-r11",0.01033 and 0.009406
same,"Lanthascreen signal, sheet CDK2","CDK2–cyclin A; Compound 156.25 nM, experiment r13-r23",0.01318 and 0.01113
same,"Lanthascreen signal, sheet CDK2","CDK2–cyclin A; Compound 315.521 nM, experiment r1-r11",0.009414 and 0.009861
same,"Lanthascreen signal, sheet CDK2","CDK2–cyclin A; Compound 625 nM, experiment r13-r23",0.01295 and 0.0131
same,"Lanthascreen signal, sheet CDK2","CDK2–cyclin A; Compound 2500 nM, experiment r13-r23",0.01303 and 0.01312
same,"Lanthascreen signal, sheet CDK2","CDK2–cyclin A; Compound 3155.21 nM, experiment r1-r11",0.008384 and 0.008441
same,"Lanthascreen signal, sheet CDK2","CDK2–cyclin A; Compound 10000 nM, experiment r13-r23",0.01252 and 0.01202
same,"Lanthascreen signal, sheet CDK2","CDK2–cyclin A; Compound 10002 nM, experiment r1-r11",0.01042 and 0.01107
same,IC50,"CDK2–cyclin A; Lanthascreen, read-out: CDK2 inhibition",> 10000 nM
same,IC50,CDK2–cyclin A; [3],> 10000 nM
same,cyclin K abundance (label-free MS),cyclin K; [4],622.336 and 691.814
same,cyclin K abundance (label-free MS),cyclin K; [5],622.336 and 691.814
same,CCNK peptide count (DMSO-normalised),cyclin K,0.34 and 0.3848
same,average CCNK peptide count,cyclin K; sheet EDF7,657.075

# Source: article PMC10746543, “Design principles for cyclin K molecular glue degraders” (Nature Chemical Biology, 2023)
